Assay results reported in US8853213B2, “Bicyclic compound for modulating G protein-coupled receptors” (Hanmi Pharm. Co., Ltd, priority 2011, dated 2014).

Target: T1, GPR119 (Homo sapiens, UniProt Q8TDV5)
T1 construct: host or cells: CHO-K1 (CRE-bla reporter, doxycycline-induced)
T1 sequence (Q8TDV5 1-335): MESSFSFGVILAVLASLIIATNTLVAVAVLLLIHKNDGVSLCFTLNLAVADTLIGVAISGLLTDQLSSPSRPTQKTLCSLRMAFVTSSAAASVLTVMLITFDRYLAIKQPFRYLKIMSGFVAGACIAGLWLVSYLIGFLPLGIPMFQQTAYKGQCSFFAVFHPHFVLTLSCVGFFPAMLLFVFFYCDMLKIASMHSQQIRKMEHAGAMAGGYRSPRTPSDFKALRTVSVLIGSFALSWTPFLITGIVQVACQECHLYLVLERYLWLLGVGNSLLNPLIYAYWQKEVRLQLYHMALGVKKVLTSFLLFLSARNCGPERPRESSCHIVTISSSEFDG
Experiment: Controlling Effect of GPR119 in CRE-bla CHO-K1 Cells (EC50)
Format: cell-based
Settings: GPR119 CRE-bla CHO-K1 cell line, 5 hr incubation with compound, β-lactamase LiveBLAzer-FRET B/G readout; read-out: controlling effect against GPR119 in CRE-bla CHO-K1 cell line (EC50)
Protocol: Controlling Effect of GPR119 in CRE-bla CHO-K1 Cells (EC50)
The day before the experiment, GPR119 CRE-bla CHO-K1 cell line purchased from Invitrogen was seeded in a 96 black well plate in an amount of 80 μl at a density of 5×10^4 cells. After the seeding, 10 μl of doxycycline in a concentration of 1 μg/ml was added to each well and incubated in an incubator at 37° C. under 5% CO2 for about 16 to 20 hr.
The day of experiment, sample compounds were performed a 10-fold serial dilution with a culture medium at various concentrations of 1 uM to […]. Considering that the culture medium used in the seeding and doxycycline are together applied, the sample compounds were diluted to a 5-fold dilution of the planned concentration. 20 μl of the compound diluted with the culture medium was added to each well and incubated in the incubator for 5 hr. The compound-untreated group was added with 20 μl of 0.5% dimethyl sulfoxide (DMSO) diluted with the culture medium. After 5 hr from the incubation, substrate mixture of a 6-fold concentration were prepared; 6 μl of 1 mM LiveBLAzer™-FRET B/G(CCF4-AM) substrate, 60 μl of solution B, 904 μl of solution C and 30 μl of solution D. 12 μl of the substrate mixture was added to each well and allowed to be kept at room temperature for 2 hr with shading the light. Fluorescence intensity value of blue channel and green channel was determined by a fluorescence microplate reader at 409 nm/460 nm and 409 nm/[…] (excitation/emission), respectively. In order to confirm the controlling effect of the inventive compounds against GPR119, EC50 (half maximal effective concentration) was determined based on the determined values. EC50, the concentration at which 50% activity of β-lactamase, was determined according to the following Equation: Equation=[(Ti−Tz)/(C−Tz)]×100
[Wherein, Ti: Cell density of the compound-treated group; Tz: Cell density of the negative control group; and C: Cell density of the positive control group]

Compound	EC50 [nM]
CS(=O)(=O)c1ccc(-c2csc3c(N4CCCC4)ncnc23)cc1 [Example 2, 7-(4-methanesulfonyl-phenyl)-4-(pyrrolidin-1-yl)thieno[3,2-d]pyrimidine]	> 1000
CS(=O)(=O)c1ccc(-c2csc3c(N4CCCCC4)ncnc23)cc1 [Example 3, 7-(4-methanesulfonyl-phenyl)-4-(piperidin-1-yl)thieno[3,2-d]pyrimidine]	> 1000
CC(C)c1noc(N2CCN(c3ncnc4c(-c5ccc(S(C)(=O)=O)cc5)csc34)CC2)n1 [Example 9, 3-isopropyl-5-(4-(7-(4-methanesulfonyl-phenyl)thieno[3,2-d]pyrimidin-4-yl)piperazin-1-yl)-1,2,4-oxadiazole]	100 to 1000
CC(C)(C)OC(=O)N1CCN(c2ncnc3c(-c4ccc(S(C)(=O)=O)cc4)csc23)CC1 [Example 10, tert-butyl 4-(7-(4-methanesulfonyl-phenyl)thieno[3,2-d]pyrimidin-4-yl)piperazine-1-carboxylate]	100 to 1000
CCc1cnc(N2CCN(c3ncnc4c(-c5ccc(S(C)(=O)=O)cc5)csc34)CC2)nc1 [Example 11, 4-(4-(5-ethylpyrimidin-2-yl)piperazin-1-yl)-7-(4-methanesulfonyl-phenyl)thieno[3,2-d]pyrimidine]	100 to 1000
CC(C)c1noc(C2CCN(c3ncnc4c(-c5ccc(S(C)(=O)=O)c(F)c5)csc34)CC2)n1 [Example 13]	> 1000
CC(C)c1noc(C2CCN(c3ncnc4c(-c5ccc([N+](=O)[O-])cc5)csc34)CC2)n1 [Example 14, 4-[4-(3-isopropyl-[1,2,4]oxadiazol-5-yl)-piperidin-1-yl]-7-(4-nitro-phenyl)-thieno[3,2-d]pyrimidine]	> 1000
CC(C)c1noc(C2CCN(c3ncnc4c(-c5ccc(C(=O)O)cc5)csc34)CC2)n1 [Example 15, 4-{4-[4-(3-isopropyl-[1,2,4]oxadiazol-5-yl)-piperidin-1-yl]-thieno[3,2-d]pyrimidin-7-yl}-benzoic acid]	100 to 1000

Continued, values first:

EC50 [nM]	Compound
< 100	7-(2-fluoro-4-4-[1-(5-trifluoromethylpyrimidin-2-yl)-piperidin-4-yloxy]-thieno[3,2-d]pyrimidine [Example 82]
< 100	CS(=O)(=O)c1ccc(-c2csc3c(N4CCC(c5nc(C6CC6)no5)CC4)ncnc23)cc1 [Example 1, 3-cyclopropyl-5-(1-(7-(4-methanesulfonyl-phenyl)thieno[3,2-d]pyrimidin-4-yl)piperidin-4-yl)-1,2,4-oxadiazole]
100 to 1000	CCc1noc(C2CCN(c3ncnc4c(-c5ccc(S(C)(=O)=O)cc5)csc34)CC2)n1 [Example 4, 3-ethyl-5-(1-(7-(4-methanesulfonyl-phenyl)thieno[3,2-d]pyrimidin-4-yl)piperidin-4-yl)-1,2,4-oxadiazole]
< 100	CC(C)c1noc(C2CCN(c3ncnc4c(-c5ccc(S(C)(=O)=O)cc5)csc34)CC2)n1 [Example 5, 3-isopropyl-5-(1-(7-(4-methanesulfonyl-phenyl)thieno[3,2-d]pyrimidin-4-yl)piperidin-4-yl)-1,2,4-oxadiazole]
< 100	CS(=O)(=O)c1ccc(-c2csc3c(N4CCC(c5nc(C6CCCC6)no5)CC4)ncnc23)cc1 [Example 6, 3-cyclopentyl-5-(1-(7-(4-methanesulfonyl-phenyl)thieno[3,2-d]pyrimidin-4-yl)piperidin-4-yl)-1,2,4-oxadiazole]
< 100	CS(=O)(=O)c1ccc(-c2csc3c(N4CCC(c5nc(C6CCCCC6)no5)CC4)ncnc23)cc1 [Example 7, 3-cyclohexyl-5-(1-(7-(4-methanesulfonyl-phenyl)thieno[3,2-d]pyrimidin-4-yl)piperidin-4-yl)-1,2,4-oxadiazole]
100 to 1000	CS(=O)(=O)c1ccc(-c2csc3c(N4CCC(c5nc(-c6ccccc6)no5)CC4)ncnc23)cc1 [Example 8, 5-(1-(7-(4-(methanesulfonylphenyl)phenyl)thieno[3,2-d]pyrimidin-4-yl)piperidin-4-yl)-3-phenyl-1,2,4-oxadiazole]
< 100	CC(C)c1noc(C2CCN(c3ncnc4c(-c5ccc(S(C)(=O)=O)cc5F)csc34)CC2)n1 [Example 12]
